What was measured:
[1] = test system: CMYC (CD and UV-vis oligonucleotide) (DNA, G4) TGGGGAGGGTGGGGAGGGTGGGGAAGG; assay: circular dichroism; conditions: 100 mM KCl, 10 mM potassium phosphate; pH 7.0, 25 °C; 10 µM DNA, 100 µM GA; positive band decreased, no induced CD
[2] = test system: 5′ETS (DNA, G4) GGGGGGCGGGTGGTTGGG; assay: circular dichroism; conditions: 100 mM KCl, 10 mM potassium phosphate; pH 7.0, 25 °C; 10 µM DNA, 100 µM GA; positive band decreased, no induced CD
[3] = test system: 5′ETS G4; assay: TOPRO3 fluorescent intercalator displacement (FID) assay, 5′ETS G4; type: binding; conditions: GA 10 µM, relative to GA-free control
Method: G4-oligonucleotides listed in Supplementary Table S3 were purchased from Integrated DNA Technologies (Clareville, IA, USA). All of them were dissolved in G4s buffer (10 mM potassium phosphate, 100 mM potassium chloride at pH 7.0), heated at 95 °C for 10 min, slowly cooled to RT, and stored at 4 °C.
We used TOPRO3 (T3605, Thermo Scientific, MA, USA) as a fluorescent intercalator for FID assays. In particular, […] TOPRO3 was incubated with […] prefolded G4s and exposed to 10 µM GA in 96-well plates. TOPRO3 was excited at 642 nm, and emission profile was monitored between 650–800 nm with Infinite M200 Plate Reader (Tecan). Fluorescence values were calculated as follows: %Fluorescence = A/B × 100; where (A) is the fluorescence value in presence of GA, and (B) corresponds to the fluorescence value in GA-free controls. All assays were conducted in triplicate. The G4-oligonucleotides used in the current study are listed in Supplementary Table S3.

[4] = test system: SW480 cells; assay: Cell cycle analysis by propidium iodide flow cytometry; type: cell-based, human; conditions: SW480, GA IC50 for 24 h
Method: Cell cycle analyses were carried out by flow cytometry with propidium iodide (PI) (P4864, Merck, Darmstadt, Germany). Cells (10^6) were seeded into 10 cm culture dishes and treated with GA IC50 for 24 h or with the vehicle DMSO as control. Cells were then fixed with ice-cold 70% ethanol on ice and stained with 0.04 mg/mL PI and 0.1 mg/mL ribonuclease A (19101, Qiagen, Hilden, Germany). Cell cycle distribution was determined by an analytical DNA flow cytometer (FACSVerse, BD Biosciences) with instrument settings on low mode and FlowJo software v10.
(§1) GA is widely present in the plant kingdom and largely found in different food sources. According to its cytotoxic activity (shown above), cell cycle analysis was performed on SW480 cells by FACS with propidium iodide staining (Figure 1C). After GA IC50 treatment for 24 h, the frequency of cells at different stages of the cell cycle changed with respect to non-treated cells (45.34% of cells at G1, 34.16% at S, 7.65% at G2/M). […] To explore this hypothesis, we determined the intracellular localization of nucleolar proteins by immunofluorescence of SW480 cells treated with GA IC50 for 6 h because we had previously observed that some DNA-binding compounds affect nucleolar organization. In particular, we analyzed three proteins that are indicative of nucleolus status, such as nucleolin (NCL), fibrillarin (FBL), and Pol I catalytic subunit A (POLR1A) (Figure 1D).

[5] = test system: 5′ETS G4; assay: PCR-stop assay, 5′ETS G4; type: biochemical; conditions: 5′ETS G4 sequence, GA 0-100 µM
[6] = test system: SW480 cells; assay: Immunofluorescence of nucleolar proteins (NCL, FBL, POLR1A); type: cell-based, human; conditions: SW480, GA IC50 for 6 h
Method: Cells were seeded on 13 mm circular coverslips and placed in 24-well plates. After exposure to different experimental conditions, fixation was performed with 4% (v/v) paraformaldehyde (P6148, Merck, Darmstadt, Germany) for 10 min at room temperature (RT), permeabilization with 0.1% (v/v) Triton-X100 (T8787, Merck, Darmstadt, Germany) for 10 min and blocking with 10% bovine serum albumin (A7906, Merck, Darmstadt, Germany) containing 0.5% (v/v) Triton-X100 for 30 min at RT. Primary antibodies were incubated for 1 h at RT and secondary antibodies for 30 min at 4 °C in darkness. Finally, all coverslips were mounted onto slides (J2800AMNZ, Thermo scientific, Waltham, MA, USA), including DAPI (4′,6-diamidino-2-phenylindole) for nuclear counterstain. Images were acquired on a Confocal Zeiss LSM 710 inverted microscope with a 63× immersion objective. In a different manner, BG4 immunofluorescence was conducted as previously described. BG4 mean nuclear fluorescence intensity was quantified using Fiji software (N > 250). Antibodies used are listed in Supplementary Table S1.
as §1

[7] = test system: 5′ETS (DNA, G4) GGGGGGCGGGTGGTTGGG; assay: UV-vis titration at 265 nm; conditions: 100 mM KCl, 10 mM potassium phosphate; pH 7.0, 25 °C; 5 µM DNA; GA to 1:20 DNA:GA
[8] = test system: SW620 cells; assay: Resazurin cytotoxic assay, metastatic SW620; type: cell-based, human; conditions: 48 h, mean ± SD
Method: CRL1790, SW480 and SW620 cell lines were purchased from American Type Culture Collection (ATCC). Cells were cultured at 37 °C with 5% CO2 atmosphere in medium supplemented with 10% fetal bovine serum (10270106, Gibco, Waltham, MA, USA), 10 mg/mL penicillin, 10 mg/mL streptomycin, […] amphotericin, and 0.03% L-Glutamine as recommended by the ATCC. MEM medium (M5650, Merck, Darmstadt, Germany) was used for non-tumoral CRL1790, and RPMI 1640 medium (L0501-500, Biowest, Nuaillé, France) was used for both tumoral SW480 and SW620 cell lines.
Cytotoxic activity was screened using Resazurin Fluorimetric Assay (R7017, Merck, Darmstadt, Germany), according to the manufacturer’s protocol. Cells seeded into 96-well plates (8 × 10^3 cells/well) were treated for 48 h with phenolic compounds at increasing concentrations from 2 × 10^−5 µM to 100 µM. Negative control with vehicle DMSO was included. Fluorescence was determined using Nanoquant Infinite M200 Pro multi-plate reader (Tecan). Half-maximal inhibitory concentration (IC50) values were determined in triplicate by non-linear regression with Graphpad (Prism).
Natural products such as phenolic compounds have recently attracted significant attention for their anticancer properties. […] We used three different cell lines to mimic CRC progression. In particular, CRL1790 are colon epithelial cells simulating the non-tumoral stage. In addition, SW480 is Dukes’ type B colorectal adenocarcinoma cells representing the primary tumor. Finally, SW620 constitutes Dukes’ type C colorectal adenocarcinoma derived from metastasic site cells to mimic the most aggressive metastasic stage. […] Cytotoxic potency upon 48 h treatment with phenolic compounds was examined by determination of half-maximal inhibitory concentration (IC50) values using the Resazurin method (Table 1). Only GA inhibited cell growth in SW480 and SW620 at clinically-relevant concentrations (IC50 values lower than 30 µM).

binding [1]: yes | binding [2]: yes | TOPRO3 fluorescence percentage [3]: 84.2% | Kd [7]: 148 µM
Compound: O=C(O)c1cc(O)c(O)c(O)c1 [Gallic acid, 3,4,5-trihydroxybenzoic acid]
% of cells at G2/M ([4]; non-treated 7.65%): 14.46% | % of cells at S ([4]; non-treated 34.16%): 43.82% | % of cells at G1 ([4]; non-treated 45.34%): 28.30% | concentration inhibiting accumulation of amplified products [5]: 100 µM | nucleolar localization of POLR1A [6]: significant changes in POLR1A were not observed | nucleolar localization of fibrillarin (FBL) [6]: segregation of FBL to nucleolar periphery caps | nucleolar localization of nucleolin (NCL) [6]: translocation of NCL from the nucleolus to the nucleoplasm | IC50 [8]: 11.8 ± 1.54 µM | IC50 ([8]; listed as GA): < 30 µM

Source: paper PMC9179882 (Cancers, 2022)
